Reference: patent US8003695B2 (Chroma Therapeutics Ltd., priority 2006, dated 2011)

Experiments:
THP-1 cells = assay: LPS-Stimulation of THP-1 Cells, TNF-α release; assay type: cell-based; conditions: Homo sapiens, LPS 1 μg/ml, 6 hrs, read-out: Inhibitor activity versus THP-1 TNFα release
Experimental: LPS-Stimulation of THP-1 Cells
THP-1 cells were plated in 100 μl at a density of 4×10^4 cells/well in V-bottomed 96 well tissue culture treated plates and incubated at 37° C. in 5% CO2 for 16 hrs. 2 hrs after the addition of the inhibitor in 100 μl of tissue culture media, the cells were stimulated with LPS (E. coli strain 005:85, Sigma) at a final concentration of 1 μg/ml and incubated at 37° C. in 5% CO2 for 6 hrs. TNF-α levels were measured from cell-free supernatants by sandwich ELISA (R&D Systems #QTA00B)

IKBKB (IKKβ) = biological target: T1, IKBKB (IKKβ) (Homo sapiens, UniProt O14920); assay: IKKβ Enzyme Assay (Z'-LYTE, Invitrogen); assay type: biochemical; conditions: ATP at or close to Km; read-out: Inhibitor activity versus IKKβ
T1 construct: purchased Invitrogen (Paisley, UK)
T1 sequence (O14920 1-756): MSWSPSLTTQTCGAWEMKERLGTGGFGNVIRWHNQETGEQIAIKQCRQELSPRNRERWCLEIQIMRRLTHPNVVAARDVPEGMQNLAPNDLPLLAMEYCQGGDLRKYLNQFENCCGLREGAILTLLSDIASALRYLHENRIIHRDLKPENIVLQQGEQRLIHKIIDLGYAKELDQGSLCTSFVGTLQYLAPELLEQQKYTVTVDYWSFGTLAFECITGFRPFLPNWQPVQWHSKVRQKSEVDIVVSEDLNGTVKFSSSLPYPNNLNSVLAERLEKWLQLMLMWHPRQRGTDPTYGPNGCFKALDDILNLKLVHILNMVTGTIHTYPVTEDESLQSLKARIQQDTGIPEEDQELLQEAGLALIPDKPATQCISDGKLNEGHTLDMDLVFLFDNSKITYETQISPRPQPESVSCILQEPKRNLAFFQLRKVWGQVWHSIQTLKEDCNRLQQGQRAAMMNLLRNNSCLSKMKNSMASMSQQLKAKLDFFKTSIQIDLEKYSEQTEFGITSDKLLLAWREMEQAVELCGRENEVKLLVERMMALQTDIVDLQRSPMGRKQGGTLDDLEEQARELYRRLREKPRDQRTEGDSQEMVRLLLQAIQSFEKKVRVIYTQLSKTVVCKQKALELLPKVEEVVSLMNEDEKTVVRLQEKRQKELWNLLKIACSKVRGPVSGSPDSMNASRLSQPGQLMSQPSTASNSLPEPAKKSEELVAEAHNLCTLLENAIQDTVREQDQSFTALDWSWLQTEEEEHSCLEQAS
Experimental: The ability of compounds to inhibit IKKβ kinase activity was measured in an assay performed by Invitrogen (Paisley, UK). The Z′-LYTE™ biochemical assay employs a fluorescence-based, coupled-enzyme format and is based on the differential sensitivity of phosphorylated and non-phosphorylated peptides to proteolytic cleavage. The peptide substrate is labelled with two fluorophores—one at each end—that make up a FRET pair. In the primary reaction, the kinase transfers the gamma-phosphate of ATP to a single serine or threonine residue in a synthetic FRET-peptide. In the secondary reaction, a site-specific protease recognizes and cleaves non-phosphorylated FRET-peptides. Phosphorylation of FRET-peptides suppresses cleavage by the Development Reagent. Cleavage disrupts FRET between the donor (i.e., coumarin) and acceptor (i.e. fluorescein) fluorophores on the FRET-peptide, whereas uncleaved, phosphorylated FRET-peptides maintain FRET. A […] method, which calculates the ratio (the Emission Ratio) of donor emission to acceptor emission after excitation of the donor fluorophore at 400 nm, is used to quantitate reaction progress.
The final 10 μL Kinase Reaction consists of 0.9-8.0 ng IKBKB (IKKβ), 2 μM Ser/Thr 05 Peptide and ATP in 50 mM HEPES pH 7.5, 0.01% BRIJ-35, 10 mM MgCl2, 1 mM EGTA. The assay is performed at an ATP concentration at, or close to the Km. After the 60 minute Kinase Reaction incubation at room temperature, 5 μL of a 1:128 dilution of Development Reagent is added. The assay plate is incubated for a further 60 minutes at room temperature and read on a fluorescence plate reader.
Duplicate data points are generated from a ⅓ log dilution series of a stock solution of test compound in DMSO. Nine dilutions steps are made from a top concentration of 10 μM, and a ‘no compound’ blank is included. Data is collected and analysed using XLfit software from IDBS. The dose response curve is curve fitted to model number 205 (sigmoidal dose-response model). From the curve generated, the concentration giving 50% inhibition is determined and reported.

## NC(=O)Nc1sc(-c2ccc(CN[C@@H](Cc3ccccc3)C(=O)OC3CCCC3)cc2)cc1C(N)=O [Example 3, Cyclopentyl N-{-4-[4-carbamoyl-5-(carbamoylamino)-2-thienyl]benzyl}-L-phenylalaninate]
THP-1 cells
  IC50: > 5000 nM
IKBKB (IKKβ)
  IC50: > 5000 nM

## NC(=O)Nc1sc(-c2ccc(CN[C@H](C(=O)OC3CCCC3)c3ccc4ccccc4c3)cc2)cc1C(N)=O [Example 5, Cyclopentyl (2S)-({4-[4-carbamoyl-5-(carbamoylamino)-2-thienyl]benzyl}amino)(2-naphthyl)acetate]
THP-1 cells
  IC50: > 5000 nM
IKBKB (IKKβ)
  IC50: > 5000 nM

## CC(C)C[C@H](NCc1ccc(-c2cc(C(N)=O)c(NC(N)=O)s2)c(Cl)c1)C(=O)OC1CCCC1 [Example 6, Cyclopentyl N-{-4-[4-carbamoyl-5-(carbamoylamino)-2-thienyl]-3-chlorobenzyl}-L-leucinate]
THP-1 cells
  IC50: > 5000 nM
IKBKB (IKKβ)
  IC50: < 1000 nM

## Cc1cc(-c2cc(C(N)=O)c(NC(N)=O)s2)ccc1CN[C@@H](CC(C)C)C(=O)OC1CCCC1 [Example 7, Cyclopentyl N-{-4-[4-carbamoyl-5-(carbamoylamino)-2-thienyl]-2-methylbenzyl}-L-leucinate]
THP-1 cells
  IC50: 1000 to 5000 nM
IKBKB (IKKβ)
  IC50: < 1000 nM

## CC(C)C[C@H](NCCc1ccc(-c2cc(C(N)=O)c(NC(N)=O)s2)cc1)C(=O)OC1CCCC1 [Example 16, Cyclopentyl N-(2-{4-[4-carbamoyl-5-(carbamoylamino)-2-thienyl]phenyl}ethyl)-L-leucinate]
THP-1 cells
  IC50: 1000 to 5000 nM
IKBKB (IKKβ)
  IC50: 1000 to 5000 nM

## CC(C)C[C@H](NCCc1ccc(-c2cc(C(N)=O)c(NC(N)=O)s2)c(Cl)c1)C(=O)OC1CCCC1 [Example 17, Cyclopentyl N-(2-{4-[4-carbamoyl-5-(carbamoylamino)-2-thienyl]-3-chlorophenyl}ethyl)-L-leucinate]
THP-1 cells
  IC50: > 5000 nM
IKBKB (IKKβ)
  IC50: 1000 to 5000 nM

## CC(C)C[C@H](NCCCOc1ccc(-c2cc(C(N)=O)c(NC(N)=O)s2)cc1)C(=O)OC1CCCC1 [Example 25, Cyclopentyl N-(3-{4-[4-carbamoyl-5-(carbamoylamino)-2-thienyl]phenoxy}propyl)-L-leucinate]
THP-1 cells
  IC50: 1000 to 5000 nM
IKBKB (IKKβ)
  IC50: 1000 to 5000 nM

## CC(C)C[C@H](NCCCOc1ccc(-c2cc(C(N)=O)c(NC(N)=O)s2)c(Cl)c1)C(=O)OC1CCCC1 [Example 26, Cyclopentyl N-(3-{4-[4-carbamoyl-5-(carbamoylamino)-2-thienyl]-3-chlorophenoxy}propyl)-L-leucinate]
THP-1 cells
  IC50: 1000 to 5000 nM
IKBKB (IKKβ)
  IC50: 1000 to 5000 nM

## CC(C)C[C@H](NCCCCCOc1ccc(-c2cc(C(N)=O)c(NC(N)=O)s2)cc1)C(=O)OC1CCCC1 [Example 27, Cyclopentyl N-(5-{4-[4-carbamoyl-5-(carbamoylamino)-2-thienyl]phenoxy}pentyl)-L-leucinate]
THP-1 cells
  IC50: 1000 to 5000 nM
IKBKB (IKKβ)
  IC50: < 1000 nM

## CC(C)C[C@H](NCCCCCOc1ccc(-c2cc(C(N)=O)c(NC(N)=O)s2)c(Cl)c1)C(=O)OC1CCCC1 [Example 28, Cyclopentyl N-(5-{4-[4-carbamoyl-5-(carbamoylamino)-2-thienyl]-3-chlorophenoxy}pentyl)-L-leucinate]
THP-1 cells
  IC50: 1000 to 5000 nM
IKBKB (IKKβ)
  IC50: > 5000 nM

## Cc1cc(-c2cc(C(N)=O)c(NC(N)=O)s2)ccc1/C=C/CN[C@@H](CC(C)C)C(=O)OC1CCCC1 [Example 30, Cyclopentyl N-[(2E)-3-{4-[4-carbamoyl-5-(carbamoylamino)thiophen-2-yl]-2-methylphenyl}prop-2-en-1-yl]-L-leucinate]
THP-1 cells
  IC50: 1000 to 5000 nM
IKBKB (IKKβ)
  IC50: 1000 to 5000 nM

## CC(C)C[C@H](NC/C=C/c1ccc(-c2cc(C(N)=O)c(NC(N)=O)s2)c(F)c1)C(=O)OC1CCCC1 [Example 34, Cyclopentyl N-[(2E)-3-{4-[4-carbamoyl-5-(carbamoylamino)thiophen-2-yl]-3-fluorophenyl}prop-2-en-1-yl]-L-leucinate]
THP-1 cells
  IC50: 1000 to 5000 nM
IKBKB (IKKβ)
  IC50: < 1000 nM

## CC(C)C[C@H](NC/C=C/c1ccc(-c2cc(C(N)=O)c(NC(N)=O)s2)c(Cl)c1)C(=O)OC1CCCC1 [Example 35, Cyclopentyl N-[(2E)-3-{4-[4-carbamoyl-5-(carbamoylamino)thiophen-2-yl]-3-chlorophenyl}prop-2-en-1-yl]-L-leucinate]
THP-1 cells
  IC50: 1000 to 5000 nM
IKBKB (IKKβ)
  IC50: 1000 to 5000 nM

## CC(C)C[C@H](NC/C=C/c1ccc(-c2cc(C(N)=O)c(NC(N)=O)s2)cc1C(F)(F)F)C(=O)OC1CCCC1 [Example 36, Cyclopentyl N-[(2E)-3-{4-[4-carbamoyl-5-(carbamoylamino)thiophen-2-yl]-2-(trifluoromethyl)phenyl}prop-2-en-1-yl]-L-leucinate]
THP-1 cells
  IC50: > 5000 nM
IKBKB (IKKβ)
  IC50: 1000 to 5000 nM

## CC(C)C[C@H](NC/C=C/c1ccc(-c2cc(C(N)=O)c(NC(N)=O)s2)c(C(F)(F)F)c1)C(=O)O [Example 79, N-[(2E)-3-{4-[4-carbamoyl-5-(carbamoylamino)thiophen-2-yl]-3-(trifluoromethyl)phenyl}prop-2-en-1-yl]-L-leucine]
IKBKB (IKKβ)
  IC50: 1000 to 5000 nM

## Cc1cc(-c2cc(C(N)=O)c(NC(N)=O)s2)cc(C)c1/C=C/CN[C@@H](CC(C)C)C(=O)O [Example 80]
IKBKB (IKKβ)
  IC50: < 1000 nM

## NC(=O)Nc1sc(-c2ccc(/C=C/CN[C@H](C(=O)O)c3ccccc3)cc2)cc1C(N)=O [Example 81, (2S)-{[(2E)-3-{4-[4-carbamoyl-5-(carbamoylamino)-2-thienyl]phenyl}prop-2-en-1-yl]amino}(phenyl)acetic acid]
IKBKB (IKKβ)
  IC50: < 1000 nM

## CC(C)(C)OC[C@H](NC/C=C/c1ccc(-c2cc(C(N)=O)c(NC(N)=O)s2)cc1)C(=O)O [Example 82, O-tert-butyl-N-[(2E)-3-{4-[4-carbamoyl-5-(carbamoylamino)thiophen-2-yl]phenyl}prop-2-en-1-yl]-L-serine]
IKBKB (IKKβ)
  IC50: < 1000 nM

## NC(=O)Nc1sc(-c2ccc(/C=C/CN[C@H](C(=O)O)C3CCCCC3)cc2)cc1C(N)=O [Example 83, (2S)-{[(2E)-3-{4-[4-carbamoyl-5-(carbamoylamino)thiophen-2-yl]phenyl}prop-2-en-1-yl]amino}(cyclohexyl)ethanoic acid]
IKBKB (IKKβ)
  IC50: < 1000 nM

## CC(C)C[C@@H](NC/C=C/c1ccc(-c2cc(C(N)=O)c(NC(N)=O)s2)cc1)C(=O)O [Example 84, N-[(2E)-3-{4-[4-carbamoyl-5-(carbamoylamino)-2-thienyl]phenyl}prop-2-en-1-yl]-D-leucine]
IKBKB (IKKβ)
  IC50: < 1000 nM

## CC(C)C[C@H](NCCc1cccc(-c2cc(C(N)=O)c(NC(N)=O)s2)c1)C(=O)O [Example 87, N-(2-{3-[4-carbamoyl-5-(carbamoylamino)-2-thienyl]phenyl}ethyl)-L-leucine]
IKBKB (IKKβ)
  IC50: < 1000 nM

## CC(C)C[C@H](NCCc1cc(-c2cc(C(N)=O)c(NC(N)=O)s2)ccc1F)C(=O)O [Example 90, N-(2-{5-[4-carbamoyl-5-(carbamoylamino)thiophen-2-yl]-2-fluorophenyl}ethyl)-L-leucine]
IKBKB (IKKβ)
  IC50: < 1000 nM

## CC(C)C[C@H](NC/C=C/c1cccc(-c2cc(C(N)=O)c(NC(N)=O)s2)c1)C(=O)O [Example 93, N-[(2E)-3-{3-[4-carbamoyl-5-(carbamoylamino)-2-thienyl]phenyl}prop-2-en-1-yl]-L-leucine]
IKBKB (IKKβ)
  IC50: < 1000 nM
